Laboratory results from paper PMC9264404 (Toxicology and applied pharmacology, 2021).
Like-named read-outs stand apart in the source and are kept apart here.

Experiments:
[1] = Pharmacokinetics in mice after oral gavage of 15 mg/kg DBC; format: in vivo, female B6129SF1/J mice
[2] = Pharmacokinetics in human volunteers after oral microdose of 29 ng [14C]-DBC; format: in vivo
[3] = tested on: hepatic microsomes of mice; conditions: cited from earlier work
[4] = tested on: hepatic microsomes of humans; conditions: DBC metabolism, human hepatic microsomes, MM model; cited from earlier work
[5] = cited from earlier work
mice = conditions: cited from earlier work
[6] = average of human volunteers, 29 ng DBC oral
[7] = DBC metabolism, mouse hepatic microsomes, MM model

Oc1c(O)c(O)c2c(cc3ccc4cccc5c6ccccc6c2c3c45)c1O [DBC-tetrols, dibenzo[def,p]chrysene-11,12,13,14-tetraol]
mean amount in urine relative to conjugated DBC-11,12-diol ([1]; 15 mg/kg DBC oral, 0–16 hr collection interval): 98.9 times

c1ccc2c(c1)cc1ccc3cccc4c5ccccc5c2c1c34 [DBC, dibenzo[def,p]chrysene]
Peak concentration in blood ([1]; 15 mg/kg DBC oral): around 3.5 μM | concentration in blood at 48 hr post dosing ([1]; 15 mg/kg DBC oral): approximately 0.0075 μM | levels detected in urine ([1]; 15 mg/kg DBC oral): trace levels | time of peak concentration in blood ([1]; 15 mg/kg DBC oral): 3 to 5 h | percent of administered dose absorbed (amount of dose recovered in urine) ([1]; 15 mg/kg oral, used as model parameter): 0.311 | % Excreted ([2]; Average of volunteers, urine): 1.39% | peak concentration relative to peak DBC-11,12-diol concentration [2, 6]: 10 times | % Excreted ([2]; volunteer V5, urine): 2.11% | % Excreted ([2]; volunteer V6, urine): 1.48% | % Excreted ([2]; volunteer V8, urine): 1.20% | % Excreted ([2]; volunteer V9, urine): 0.70% | % Excreted ([2]; volunteer V10, urine): 1.93% | % Excreted ([2]; volunteer V13, urine): 0.92% | Km [3, 7]: 6.63 µM | Vmax [3, 7]: 19.38 nmol/min/mg | DBC metabolism rate, mice compared to humans ([3]; after scaling to body weight to the ¾ power): 3 fold | Km [4]: 0.915 µM | Vmax [4]: 0.27 nmol/min/mg | Peak concentration in blood [5, 6]: 74.8 fM | time of peak concentration in blood [5, 6]: around 1 hr | Eliminated Total (sum of all DBC metabolites excreted in urine) ([5]; volunteer V5, oral dose 25.2 ng): 0.532 ng 14C-DBCeq | Eliminated Total (sum of all DBC metabolites excreted in urine) ([5]; volunteer V6, oral dose 29.8 ng): 0.441 ng 14C-DBCeq | Eliminated Total (sum of all DBC metabolites excreted in urine) ([5]; volunteer V8, oral dose 23.9 ng): 0.285 ng 14C-DBCeq | Eliminated Total (sum of all DBC metabolites excreted in urine) ([5]; volunteer V9, oral dose 28.5 ng): 0.200 ng 14C-DBCeq | Eliminated Total (sum of all DBC metabolites excreted in urine) ([5]; volunteer V10, oral dose 25.6 ng): 0.494 ng 14C-DBCeq | Eliminated Total (sum of all DBC metabolites excreted in urine) ([5]; volunteer V13, oral dose 28.5 ng): 0.263 ng 14C-DBCeq | Peak concentration in blood ([5]; volunteers 8 and 9 (both), 29 ng DBC oral): ~ 100 fM | time of peak concentration in blood ([5]; volunteers 8 and 9, 29 ng DBC oral): 1 to 2 h | transplacental carcinogenicity (mice; B6129F1/J mice, offspring of mothers exposed to DBC): cause T-cell lymphoma, lung adenoma and liver lesions in offspring | potency in producing lung adenomas relative to benzo[a]pyrene (B[a]P) (mice): 100 times | tumors after intraperitoneal exposure (mice; mice exposed intraperitoneally): lung and liver cancer | tumors after dermal exposure (mice; mice, dermal exposure): cause skin tumors | tumors after intramammary exposure (mice; mice, intramammary exposure): promote mammary tumors
